Laboratory results from patent US20100239639A1, “MEDICATED PATCH” (HISAMITSU PHARMACEUTICAL CO., INC., priority 2007, published 2010).

Assay: Solubility test of BM-DBM
Format: physicochemical
Details: 1 g BM-DBM mixed with 2 g additive, dissolved at 140° C., cooled to room temperature for 30 min
Experimental: 1 g of BM-DBM was mixed with 2 g of an additive, dissolved at 140° C., then the mixture was cooled to room temperature for 30 min and its state was observed.

- Solubility of BM-DBM: ◯
- solubility of BM-DBM (in words): particularly good solubility of BM-DBM
SMILES: CCCCCCCCCCCC(=O)OCCCCCC [Hexyl laurate]
